Source: patent US8486901B2 (priority 2009, dated 2013)
Where “and” joins values, the source holds several entries; their conditions need not be identical. Identical values can stand only once.

System: Kunming mice
Conditions: mouse, in vivo

For `N=C1NC(O)C2C3OC4(O)OC(C(O)C2(N1)[C@@H]4O)C3(O)COC1OC(CO)C(O)C(O)C1O` (stereo partly drawn) [Formula 11-Gal-TTX, 11-galactopyranosyl-TTX], the “Effect on pain (result in words)” value was “inhibitory effect on pain”, the “Inhibition rate (%)” value was 60.6% and 30.3% and 51.7% and the Number of writhes was 12.50 ± 4.7 and 22.10 ± 6.4 and 15.30 ± 6.4.
